The subject of experiment [1] is Staphylococcus aureus MW2 (mecA+). Nature of the experiment: IC50 (growth, competition assay). The conditions noted are these: cefoxitin: subinhibitory. In a few lines:
(§1)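 Two fluorescent S. aureus MW2 strains, one carrying and one lacking the resistance gene, were pre-induced, mixed 1:1 and grown unshaken in LB in 1536-well plates for 20 h at 37 °C and 90% humidity with a subinhibitory drug dose set each day. Compounds were tested on five- or nine-point 2-fold gradients in two dye-swapped replicates. DsRed (540/590) and GFP (485/520) signals were scaled per plate between the medians of single-strain controls, and No Treatment was then set to 0.5. For each strain, IC50 was taken as the dose that halved the No Treatment signal, or else the maximal signal.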

The test system of experiment [2] is Staphylococcus aureus MW2 delta-mecA (mecA-). Description: IC50 (growth, competition assay). The conditions noted are these: cefoxitin: subinhibitory. In a few lines:
as §1

“And” between values parts separate entries of the source, which are not always exact repeats. Equal entries are not always repeated. Structures can show the parent of a compound that is named as a salt.

As usually defined, the IC50 is the concentration at which inhibition is half-maximal. Low readings indicate greater potency, high ones weaker potency. Regarding `CO/N=C(\C(=O)N[C@@H]1C(=O)N2C(C(=O)O)=C(COC(N)=O)CS[C@H]12)c1ccco1` [ZINACEF], the IC50 in experiment [1] (fluorescent label: DsRed) is 21.3 µM; in experiment [1] (fluorescent label: GFP) it was 19.3 µM; in experiment [2] (fluorescent label: DsRed), below 9.85 µM; in experiment [2] (fluorescent label: GFP) it was below 9.85 µM.
As for `Oc1c(Br)cc(Br)c2cccnc12` [FENILOR], the half-maximal inhibitory concentration (IC50) in experiment [1] (fluorescent label: DsRed) was below 9.85 µM; in experiment [1] (fluorescent label: GFP) it was 13.6 µM; in experiment [2] (fluorescent label: DsRed) it was below 9.85 µM; in experiment [2] (fluorescent label: GFP), below 9.85 µM.
As for `C=CC1=C(C(=O)O)N2C(=O)[C@@H](NC(=O)/C(=N\O)c3csc(N)n3)[C@H]2SC1` [Cefdinir (Omnicef)], the IC50 in experiment [1] (fluorescent label: DsRed) was 4.17 µM; in experiment [1] (fluorescent label: GFP) it was 3.6 µM; in experiment [2] (fluorescent label: DsRed) it was below 0.498 µM; in experiment [2] (fluorescent label: GFP), below 0.498 µM.
Take `O=C(O)c1ccc(N2C(=O)/C(=C\c3ccc(-c4ccc([N+](=O)[O-])cc4)o3)C=C2c2ccccc2)cc1` [4E1RCat]: the IC50 was 54.5 µM in experiment [1] (fluorescent label: DsRed), 78.7 µM in experiment [1] (fluorescent label: GFP), 18 µM in experiment [2] (fluorescent label: DsRed) and below 9.85 µM in experiment [2] (fluorescent label: GFP).
Regarding `O=c1cc(O)cc(/C=C/c2ccc(O)c(O)c2)o1` [Hispidin], the IC50 worked out at 58.9 µM in experiment [1] (fluorescent label: DsRed), 54.8 µM in experiment [1] (fluorescent label: GFP), 50.9 µM in experiment [2] (fluorescent label: DsRed) and 59.1 µM in experiment [2] (fluorescent label: GFP).
The like results for `Cc1cc(N)c2ccccc2[n+]1CCCCCCCCCC[n+]1c(C)cc(N)c2ccccc21` [Dequalinium chloride hydrate] were, in that order, below 9.85 µM, below 9.85 µM, below 9.85 µM and below 9.85 µM.
Consider `Nc1nc(/C(=C/CC(=O)O)C(=O)N[C@@H]2C(=O)N3C(C(=O)O)=CCS[C@H]23)cs1` [CEDAX], for which the IC50 was 18.2 µM in experiment [1] (fluorescent label: DsRed), 18.9 µM in experiment [1] (fluorescent label: GFP), below 9.85 µM in experiment [2] (fluorescent label: DsRed) and below 9.85 µM in experiment [2] (fluorescent label: GFP).
As to `CC[C@H]1OC(=O)C[C@@H](O)[C@H](C)[C@@H](O[C@@H]2O[C@H](C)[C@@H](O[C@H]3C[C@@](C)(O)[C@@H](O)[C@H](C)O3)[C@H](N(C)C)[C@H]2O)[C@@H](CC=O)C[C@@H](C)C(=O)/C=C/C(C)=C/[C@@H]1CO[C@@H]1O[C@H](C)[C@@H](O)[C@@H](OC)[C@H]1OC` [Tylosin tartrate], the IC50 in experiment [1] (fluorescent label: DsRed), in experiment [1] (fluorescent label: GFP), in experiment [2] (fluorescent label: DsRed) and in experiment [2] (fluorescent label: GFP) was below 9.85 µM each time.
As for `CN1CCN(CCCN2c3ccccc3Sc3ccc(Cl)cc32)CC1` [Prochlorperazine dimaleate], the IC50 in experiment [1] (fluorescent label: DsRed) was determined as 56.2 µM; in experiment [1] (fluorescent label: GFP), 54.5 µM; in experiment [2] (fluorescent label: DsRed) it was 21.5 µM; in experiment [2] (fluorescent label: GFP), 18 µM.
With `C[C@@H]1CCO[C@H]2Cn3cc(C(=O)NCc4ccc(F)cc4F)c(=O)c(O)c3C(=O)N12`, the IC50 was above 150 µM in experiment [1] (fluorescent label: DsRed), above 150 µM in experiment [1] (fluorescent label: GFP), 109 µM in experiment [2] (fluorescent label: DsRed) and 59 µM in experiment [2] (fluorescent label: GFP).
As for `O=C(Nc1ccc(C(=O)O)c(O)c1)c1ccccc1` [THERAPAS], the IC50 in experiment [1] (fluorescent label: DsRed) was 29.8 µM; in experiment [1] (fluorescent label: GFP), 29.3 µM; in experiment [2] (fluorescent label: DsRed), 17.6 µM; in experiment [2] (fluorescent label: GFP), 11.8 µM.
`O=C(O)c1cn(C2CC2)c2cc(N3CCNCC3)c(F)cc2c1=O` [Ciprofloxacin (Cipro)]: the IC50 is 3.52 µM in experiment [1] (fluorescent label: DsRed), 3.52 µM in experiment [1] (fluorescent label: GFP), 0.863 µM in experiment [2] (fluorescent label: DsRed) and 1.17 µM in experiment [2] (fluorescent label: GFP).
For the molecule `CC[C@@H](C(=O)[C@@H](C)[C@@H](O)[C@H](C)CCc1ccc(C)c(O)c1C(=O)O)[C@H]1O[C@](CC)([C@H]2CC[C@](O)(CC)[C@H](C)O2)C[C@@H]1C` [BOVOTEC], the IC50 in experiment [1] (fluorescent label: DsRed), in experiment [1] (fluorescent label: GFP), in experiment [2] (fluorescent label: DsRed) and in experiment [2] (fluorescent label: GFP) was below 9.85 µM each time.
In the case of `C[C@@H](Oc1cc(-c2cnn(C3CCNCC3)c2)cnc1N)c1c(Cl)ccc(F)c1Cl`, the IC50 in experiment [1] (fluorescent label: DsRed) is 101 µM; in experiment [1] (fluorescent label: GFP) it was 108 µM; in experiment [2] (fluorescent label: DsRed), 20.9 µM; in experiment [2] (fluorescent label: GFP), 17 µM.
The matching figures for `Cc1cc(Nc2cc(N3CCN(C)CC3)nc(/C=C/c3ccccc3)n2)n[nH]1` [ENMD-2076]: 47.6 µM, 55.2 µM, 6.48 µM and 4.72 µM.
For the molecule `CC[C@@]1([C@@H]2O[C@@H]([C@H]3O[C@@](O)(CO)[C@H](C)C[C@@H]3C)C[C@@H]2C)CC[C@H]([C@]2(C)CC[C@]3(C[C@H](O)[C@@H](C)[C@@H]([C@@H](C)[C@@H](OC)[C@H](C)C(=O)O)O3)O2)O1` [Monensin sodium salt (Coban)], the IC50 is 2.46 µM and < 9.85 µM in experiment [1] (fluorescent label: DsRed); 8.62 µM and 13.9 µM in experiment [1] (fluorescent label: GFP); 3.16 µM and < 9.85 µM in experiment [2] (fluorescent label: DsRed); below 0.498 µM in experiment [2] (fluorescent label: GFP).
Turning to `C[C@@H]1CN(c2c(F)c(F)c3c(=O)c(C(=O)O)cn(C4CC4)c3c2F)C[C@H](C)N1` [ORBAX], the IC50 in experiment [1] (fluorescent label: DsRed) was below 9.85 µM; in experiment [1] (fluorescent label: GFP), 15.1 µM; in experiment [2] (fluorescent label: DsRed), 17.8 µM; in experiment [2] (fluorescent label: GFP) it was below 9.85 µM.
As to `Oc1c(Cl)cc(Cl)c2cccnc12` [CAPITROL], the IC50 in experiment [1] (fluorescent label: DsRed) was 17.9 µM; in experiment [1] (fluorescent label: GFP), 30 µM; in experiment [2] (fluorescent label: DsRed) it was below 9.85 µM; in experiment [2] (fluorescent label: GFP) it was below 9.85 µM.
In the case of `COc1cc(-c2ccc(/N=N/c3ccc4c(S(=O)(=O)O)cc(S(=O)(=O)O)c(N)c4c3O)c(OC)c2)ccc1/N=N/c1ccc2c(S(=O)(=O)O)cc(S(=O)(=O)O)c(N)c2c1O` [CHICAGO SKY BLUE], the 50% inhibitory concentration (IC50) in experiment [1] (fluorescent label: DsRed) is 24.8 µM; in experiment [1] (fluorescent label: GFP), 16.5 µM; in experiment [2] (fluorescent label: DsRed) it was below 9.85 µM; in experiment [2] (fluorescent label: GFP), below 9.85 µM.
`O=C(O[C@@H]1Cc2c(O)cc(O)cc2O[C@@H]1c1cc(O)c(=O)c2c(O)c(O)cc([C@H]3Oc4cc(O)cc(O)c4C[C@H]3OC(=O)c3cc(O)c(O)c(O)c3)c2c1)c1cc(O)c(O)c(O)c1` [THEAFLAVIN DIGALLATE]: the IC50 in experiment [1] (fluorescent label: DsRed) was above 150 µM; in experiment [1] (fluorescent label: GFP), above 150 µM; in experiment [2] (fluorescent label: DsRed) it was 83.8 µM; in experiment [2] (fluorescent label: GFP) it was 57.3 µM.
Take `C=C[C@]1(C)C[C@@H](OC(=O)CS[C@@H]2C[C@H]3CC[C@@H](C2)N3C)[C@]2(C)[C@H](C)CC[C@]3(CCC(=O)[C@H]32)[C@@H](C)[C@@H]1O` [Retapamulin]: the IC50 in experiment [1] (fluorescent label: DsRed), in experiment [1] (fluorescent label: GFP), in experiment [2] (fluorescent label: DsRed) and in experiment [2] (fluorescent label: GFP) was below 9.85 µM in each case.
Regarding `Cc1onc(-c2ccccc2)c1C(=O)N[C@@H]1C(=O)N2[C@@H]1SC(C)(C)[C@@H]2C(=O)O` [Oxacillin sodium monohydrate], the IC50 in experiment [1] (fluorescent label: DsRed), in experiment [1] (fluorescent label: GFP), in experiment [2] (fluorescent label: DsRed) and in experiment [2] (fluorescent label: GFP) was below 9.85 µM in each case.
As to `O=C(O)Cc1cc(I)c(Oc2ccc(O)c(I)c2)c(I)c1` [TRIAC], the IC50 is 12.5 µM in experiment [1] (fluorescent label: DsRed), 23 µM in experiment [1] (fluorescent label: GFP), 11.1 µM in experiment [2] (fluorescent label: DsRed) and below 9.85 µM in experiment [2] (fluorescent label: GFP).
As for `COc1cc(Cc2cnc(N)nc2N)cc(OC)c1OC` [Trimethoprim], the IC50 in experiment [1] (fluorescent label: DsRed) was 12.4 µM and < 9.85 µM; in experiment [1] (fluorescent label: GFP), 14.6 µM and 14.2 µM; in experiment [2] (fluorescent label: DsRed) it was below 9.85 µM; in experiment [2] (fluorescent label: GFP), below 9.85 µM.
In the case of `CC(=O)NC[C@H]1CN(c2ccc(N3CCOCC3)c(F)c2)C(=O)O1` [ZYVOX], the IC50 in experiment [1] (fluorescent label: DsRed), in experiment [1] (fluorescent label: GFP), in experiment [2] (fluorescent label: DsRed) and in experiment [2] (fluorescent label: GFP) was below 9.85 µM in each case.
As for `C[C@H]1COC2=C1C(=O)C(=O)c1c2ccc2c1CCCC2(C)C` [CRYPTOTANSHINONE], the IC50 in experiment [1] (fluorescent label: DsRed) was determined as 13 µM; in experiment [1] (fluorescent label: GFP), 15.7 µM; in experiment [2] (fluorescent label: DsRed) it was 11.3 µM; in experiment [2] (fluorescent label: GFP) it was 10.5 µM.
The like results for `CO/N=C1\CN(c2nc3c(cc2F)c(=O)c(C(=O)O)cn3C2CC2)CC1CN` (stereo unspecified) [FACTIVE] were, in that order, below 9.85 µM, below 9.85 µM, below 9.85 µM and below 9.85 µM.
The matching figures for `CCN(CC)C(=S)SSC(=S)N(CC)CC` [Tetraethylthiuram disulfide]: 33.4 µM, 36.1 µM, below 9.85 µM and below 9.85 µM.
The like results for `CC(=O)OC[C@H]1O[C@@H]([S-])[C@H](OC(C)=O)[C@@H](OC(C)=O)[C@@H]1OC(C)=O.CCP(CC)CC.[Au+]` [Auranofin] were, in that order, below 9.85 µM, below 9.85 µM, below 9.85 µM and below 9.85 µM.
